Assay results taken from ChEMBL document CHEMBL1201862, “PubChem BioAssay data set” (2004).
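Compound exposure: 48 hours, 5 concentrations, 96-well plates. Abbreviation: GI50, concentration required for 50% inhibition of growth.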 The source made the active and inactive calls. Rule as the data show it: active = GI50 up to about 1.1 µM and inactive = higher.

Columns and labels:
Experiment in all cases: NCI anticancer screen, dose series, 48 h
HL-60 = test system: HL-60
OVCAR-8 = test system: OVCAR-8
CAKI-1 = test system: CAKI-1
SNB-19 = test system: SNB-19
SK-MEL-2 = test system: SK-MEL-2
IGROV-1 = test system: IGROV-1
KM12 = test system: KM12
COLO 205 = test system: COLO 205
NCI-H522 = test system: NCI-H522
SNB-75 = test system: SNB-75
SF-268 = test system: SF-268
HCC 2998 = test system: HCC 2998
Malme-3M = test system: Malme-3M
HCT-15 = test system: HCT-15

Row | SMILES | GI50 (HL-60) | GI50 (OVCAR-8) | GI50 (CAKI-1) | GI50 (SNB-19) | GI50 (SK-MEL-2) | GI50 (IGROV-1) | GI50 (KM12) | GI50 (COLO 205) | GI50 (NCI-H522) | GI50 (SNB-75) | GI50 (SF-268) | GI50 (HCC 2998) | GI50 (Malme-3M) | GI50 (HCT-15) [µM]
1 | CSC(C1c2ccccc2N(C)C2=NC(=O)N(C)C(=O)C21Cl)S(=O)(=O)c1ccc(C)cc1 (centres undefined) | 14.2 µM (inactive) | 21 µM (inactive) | 24.9 µM (inactive) | 64.3 µM (inactive) | 33 µM (inactive) | > 100 µM (inactive) | 60.5 µM (inactive) | 40.2 µM (inactive) | 15.7 µM (inactive) | 24 µM (inactive) | 29.3 µM (inactive) | > 100 µM (inactive) | 40.3 µM (inactive) | 40.9
2 | C[N+](C)=c1[nH]c2ccccc2[nH]1 | > 100 µM (inactive) | > 100 µM (inactive) | > 100 µM (inactive) |  | > 100 µM (inactive) | > 100 µM (inactive) | > 100 µM (inactive) | > 100 µM (inactive) | > 100 µM (inactive) | 24.3 µM (inactive) | > 100 µM (inactive) | > 100 µM (inactive) | > 100 µM (inactive) | > 100
3 | CCOc1ccccc1NC(=O)CSc1nnc(Cc2ccccc2)o1 | 35.7 µM (inactive) | 27 µM (inactive) | 20.5 µM (inactive) | 24 µM (inactive) | 23.8 µM (inactive) | 47.5 µM (inactive) | 40.3 µM (inactive) | 20.6 µM (inactive) | 18.2 µM (inactive) | 56.1 µM (inactive) | 23.9 µM (inactive) | 48.1 µM (inactive) | 15.6 µM (inactive) | 17.3
4 | CCOC(=O)c1ccc(-n2c(SCC)nc3sc(C)c(C)c3c2=O)cc1 | > 100 µM (inactive) | 68.7 µM (inactive) | > 100 µM (inactive) | > 100 µM (inactive) | > 100 µM (inactive) | > 100 µM (inactive) | > 100 µM (inactive) | > 100 µM (inactive) | > 100 µM (inactive) | 36.7 µM (inactive) | > 100 µM (inactive) | > 100 µM (inactive) | > 100 µM (inactive) | > 100
5 | C(=C1\CCC/C(=C/c2ccccc2)C1=NNc1ccccc1)/c1ccccc1 | > 100 µM (inactive) | > 100 µM (inactive) |  | > 100 µM (inactive) | > 100 µM (inactive) | > 100 µM (inactive) | > 100 µM (inactive) | > 100 µM (inactive) | > 100 µM (inactive) | 87.3 µM (inactive) | > 100 µM (inactive) | > 100 µM (inactive) | > 100 µM (inactive) | > 100
6 | N=C(CC(=O)Nc1ccc(Cl)cc1)Nc1ccccc1 | > 100 µM (inactive) | > 100 µM (inactive) | > 100 µM (inactive) | > 100 µM (inactive) | > 100 µM (inactive) | > 100 µM (inactive) | > 100 µM (inactive) | > 100 µM (inactive) | > 100 µM (inactive) | > 100 µM (inactive) | > 100 µM (inactive) | > 100 µM (inactive) | > 100 µM (inactive) | 
7 | CC(=O)OC1(C)C(=O)OC1(C)C(C)=O (centres undefined) | > 100 µM (inactive) | > 100 µM (inactive) | > 100 µM (inactive) | > 100 µM (inactive) | > 100 µM (inactive) | > 100 µM (inactive) | > 100 µM (inactive) | > 100 µM (inactive) | > 100 µM (inactive) | > 100 µM (inactive) | > 100 µM (inactive) | > 100 µM (inactive) | > 100 µM (inactive) | > 100
8 | COc1cc(C2c3cc4c(cc3[C@@H](Nc3ccc(N(C)C)cc3)[C@H]3COC(=O)C23)OCO4)cc(OC)c1O (some centres undefined) | 0.193 µM (active) | 0.587 µM (active) | 0.141 µM (active) | 0.273 µM (active) | 2.37 µM (inactive) | 3.56 µM (inactive) | 1.24 µM (inactive) | 1.85 µM (inactive) | 0.873 µM (active) | 0.324 µM (active) | 0.351 µM (active) | 1.27 µM (inactive) | 1.41 µM (inactive) | 0.838
